# Test results from patent US12662451B2, “Chemical compounds and uses thereof” (GLAXOSMITHKLINE INTELLECTUAL PROPERTY (NO.4) LIMITED, priority 2023, dated 2026).
# Key:
# [1] = test system: SW48 human colorectal cancer cells (MSI-H cancer cells)
# [2] = target: T1, recombinant full-length WRN protein (1-1432) (Homo sapiens, UniProt Q14191); test: WRN unwinding activity, fluorogenic 384-well assay (Example A); assay type: biochemical; conditions: WRN unwinding activity, Table 2
# T1 construct: recombinant full-length WRN protein (1-1432)
# T1 sequence (Q14191 whole entry): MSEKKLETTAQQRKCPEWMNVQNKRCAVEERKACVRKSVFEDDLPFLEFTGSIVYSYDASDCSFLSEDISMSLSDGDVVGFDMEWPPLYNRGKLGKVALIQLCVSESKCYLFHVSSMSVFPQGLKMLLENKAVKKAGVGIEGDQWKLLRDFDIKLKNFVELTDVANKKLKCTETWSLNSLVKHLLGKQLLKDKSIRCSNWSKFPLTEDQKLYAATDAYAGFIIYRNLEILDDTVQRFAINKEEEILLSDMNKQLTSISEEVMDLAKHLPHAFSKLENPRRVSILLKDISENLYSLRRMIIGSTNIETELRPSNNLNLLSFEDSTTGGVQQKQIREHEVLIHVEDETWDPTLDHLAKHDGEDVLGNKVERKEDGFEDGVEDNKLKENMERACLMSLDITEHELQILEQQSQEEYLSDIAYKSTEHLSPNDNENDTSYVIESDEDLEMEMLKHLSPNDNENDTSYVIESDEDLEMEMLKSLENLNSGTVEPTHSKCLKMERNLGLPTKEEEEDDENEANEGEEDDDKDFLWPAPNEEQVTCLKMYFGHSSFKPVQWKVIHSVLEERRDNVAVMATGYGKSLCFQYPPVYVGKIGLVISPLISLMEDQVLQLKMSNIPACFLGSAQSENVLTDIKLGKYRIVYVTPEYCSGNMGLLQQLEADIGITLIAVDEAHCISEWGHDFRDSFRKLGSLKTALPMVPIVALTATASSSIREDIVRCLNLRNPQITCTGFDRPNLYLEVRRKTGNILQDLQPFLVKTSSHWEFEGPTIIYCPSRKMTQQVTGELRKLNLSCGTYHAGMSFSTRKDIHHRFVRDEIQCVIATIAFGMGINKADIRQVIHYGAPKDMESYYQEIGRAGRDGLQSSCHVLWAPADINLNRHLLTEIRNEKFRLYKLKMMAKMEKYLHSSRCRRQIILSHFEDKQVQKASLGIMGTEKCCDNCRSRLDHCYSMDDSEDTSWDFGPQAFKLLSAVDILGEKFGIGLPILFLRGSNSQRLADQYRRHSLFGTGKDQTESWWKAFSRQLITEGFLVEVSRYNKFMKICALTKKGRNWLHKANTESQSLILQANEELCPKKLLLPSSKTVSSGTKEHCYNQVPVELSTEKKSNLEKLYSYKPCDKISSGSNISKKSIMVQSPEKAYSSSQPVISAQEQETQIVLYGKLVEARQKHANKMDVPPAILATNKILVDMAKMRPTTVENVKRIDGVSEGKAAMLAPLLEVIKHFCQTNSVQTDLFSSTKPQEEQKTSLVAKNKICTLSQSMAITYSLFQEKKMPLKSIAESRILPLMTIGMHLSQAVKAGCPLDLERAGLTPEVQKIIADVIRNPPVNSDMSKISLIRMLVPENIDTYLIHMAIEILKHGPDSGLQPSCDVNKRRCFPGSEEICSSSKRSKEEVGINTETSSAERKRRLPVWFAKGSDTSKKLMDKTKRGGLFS
# Procedure, shortened: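 Read-out is end-point unwinding of a fluorophore/quencher duplex (ex 525, em 598 nm) after 60 min with 200 μM ATP and 12 nM DNA (2× stocks), EDTA stop. Compound first sat 4 h with 200 pM WRN (2× stock) in pH 8.0 Tris buffer; four-parameter fit gives pIC50.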
smiles,measurement,setting,value
"Cc1nc2cc(S(=O)(=O)Nc3ccc([C@H]4CCC[C@@H](C(=O)Nc5ccc(C(F)(F)F)cc5F)[C@@H]4C(=O)O)cc3)ccc2[nH]1 (relative stereo) [Example 259, rel-(1R,2R,6S)-2-((2-fluoro-4-(trifluoromethyl)phenyl)carbamoyl)-6-(4-((2-methyl-1H-benzo[d]imidazole)-5-sulfonamido)phenyl)cyclohexane-1-carboxylic acid]",SW48 pCC50,[1],5.4
same,4 hr UNW pIC50,[2],9.2
